Laboratory results taken from US6613718B2, “Aryl ether derivatives and processes for their preparation and herbicidal and desiccant compositions containing them” (Ishihara Sangyo Kaisha, Ltd., priority 2001, dated 2003).

What was measured:
Type in all cases: in vivo
Conditions in all cases: 14 days after application
[1] = system: barnyardgrass (Echinochloa crus-galli, ECHCG); assay: Pre-emerge greenhouse herbicide activity screening, phytotoxicity rating
Text: (§1) A standard greenhouse herbicide activity screening system was used to evaluate the herbicidal efficacy and crop safety of these test compounds. Seven broadleaf weed species including redroot pigweed (Amaranthus retroflexus, AMARE), velvetleaf (Abutilon theophrasti, ABUTH), sicklepod (Cassia obtusifolia, CASOB), ivyleaf morningglory (Ipomoea hederacea, IPOHE), lambsquarters (Chenopodium album, CHEAL), common ragweed (Ambrosia artemisiifolia L., AMBEL), and cocklebur (Xanthium strumarium, XANST) were used as test species. Four grass weed species including green foxtail (Setaria viridis, SETVI), barnyardgrass (Echinochloa crus-galli, ECHCG), johnsongrass (Sorghum halepense, SORHA), and large crabgrass (Digitaria sanguinalis, DIGSA) were also used. In addition, three crop species, field corn (Zea mays L., var. Dekalb 535, CORN), soybean (Glycine max L., var. Pella 86, SOY), and upland rice (Oryza sp., var.Tebonnet, RICE) were included.
(§2) All plants were grown in 10 cm square plastic pots which were filled with a sandy loam soil mix. For pre-emerge tests, seeds were planted one day prior to application of the test compounds. For post-emerge tests, seeds were planted 8-21 days prior to the test to allow emergence and good foliage development prior to application of the test substances. At the time of the post-emerge application, plants of all species were usually at the 2-3 leaf stage of development.
(§3) All test compounds were dissolved in acetone and applied to the test units in a volume of 187 1/ha. Test materials were applied at rates ranging from 15 g ai/ha to 1000 g ai/ha using a track sprayer equipped with a TJ8001E even flow flat fan spray nozzle. Plants were arranged on a shelf so that the top of the canopy (post-emerge) or top of the soil surface (pre-emerge) was 40-45 cm below the nozzle. Pressurized air was used to force the test solution through the nozzle as it was mechanically advanced (via electrically driven chain drive) over the top of all test plants/pots. This application simulates a typical commercial field herbicide application.
(§4) In the post-emerge test, a commercial non-ionic surfactant was also included (0.25% v/v) to enhance wetting of the leaf surfaces of target plants. Immediately after application, test units of the pre-emerge applications were watered at the soil surface to incorporate the test materials. Subsequently, these test units were bottom-watered. Post-emerge test units were always bottom-watered.
(§5) At 14 days after application of the test materials, phytotoxicity ratings were recorded. A rating scale of 0-100 was used as previously described in Research Methods in Weed Science, 2nd edition, B. Truelove, Ed., Southern Weed Science Society, Auburn University, Auburn, Ala., 1977. Briefly, “0” corresponds to no damage and “100” corresponds to complete death of all plants in the test unit. This scale was used both to determine efficacy against weed species and damage to crop species. Herbicide activity data for various compounds of this invention, which are shown by compound No. in Tables I-VI, are shown in Tables VIII-IX.

[2] = system: common ragweed (Ambrosia artemisiifolia L., AMBEL); assay: as above
Text: as §1, §2, §3, §4, §5

[3] = system: green foxtail (Setaria viridis, SETVI); assay: as above
Text: as §1, §2, §3, §4, §5

[4] = system: ivyleaf morningglory (Ipomoea hederacea, IPOHE); assay: as above
Text: as §1, §2, §3, §4, §5

[5] = system: johnsongrass (Sorghum halepense, SORHA); assay: as above
Text: as §1, §2, §3, §4, §5

[6] = system: lambsquarters (Chenopodium album, CHEAL); assay: as above
Text: as §1, §2, §3, §4, §5

[7] = system: large crabgrass (Digitaria sanguinalis, DIGSA); assay: as above
Text: as §1, §2, §3, §4, §5

[8] = system: redroot pigweed (Amaranthus retroflexus, AMARE); assay: as above
Text: as §1, §2, §3, §4, §5

[9] = system: sicklepod (Cassia obtusifolia, CASOB); assay: as above
Text: as §1, §2, §3, §4, §5

[10] = system: velvetleaf (Abutilon theophrasti, ABUTH); assay: as above
Text: as §1, §2, §3, §4, §5

[11] = system: field corn (Zea mays L., var. Dekalb 535, CORN); assay: Pre-emerge greenhouse screening, crop safety (phytotoxicity rating)
Text: as §1, §2, §3, §4, §5

[12] = system: soybean (Glycine max L., var. Pella 86, SOY); assay: as above
Text: as §1, §2, §3, §4, §5

[13] = system: upland rice (Oryza sp., var.Tebonnet, RICE); assay: as above
Text: as §1, §2, §3, §4, §5

[14] = system: barnyardgrass (Echinochloa crus-galli, ECHCG); assay: Post-emerge greenhouse herbicide activity screening, phytotoxicity rating
Text: as §1, §2, §3, §4, §5

[15] = system: common ragweed (Ambrosia artemisiifolia L., AMBEL); assay: as above
Text: as §1, §2, §3, §4, §5

[16] = system: green foxtail (Setaria viridis, SETVI); assay: as above
Text: as §1, §2, §3, §4, §5

[17] = system: ivyleaf morningglory (Ipomoea hederacea, IPOHE); assay: as above
Text: as §1, §2, §3, §4, §5

[18] = system: johnsongrass (Sorghum halepense, SORHA); assay: as above
Text: as §1, §2, §3, §4, §5

[19] = system: lambsquarters (Chenopodium album, CHEAL); assay: as above
Text: as §1, §2, §3, §4, §5

[20] = system: large crabgrass (Digitaria sanguinalis, DIGSA); assay: as above
Text: as §1, §2, §3, §4, §5

[21] = system: redroot pigweed (Amaranthus retroflexus, AMARE); assay: as above
Text: as §1, §2, §3, §4, §5

[22] = system: sicklepod (Cassia obtusifolia, CASOB); assay: as above
Text: as §1, §2, §3, §4, §5

[23] = system: velvetleaf (Abutilon theophrasti, ABUTH); assay: as above
Text: as §1, §2, §3, §4, §5

[24] = system: field corn (Zea mays L., var. Dekalb 535, CORN); assay: Post-emerge greenhouse screening, crop safety / corn selectivity (phytotoxicity rating)
Text: as §1, §2, §3, §4, §5

[25] = system: soybean (Glycine max L., var. Pella 86, SOY); assay: Post-emerge greenhouse screening, crop safety (phytotoxicity rating)
Text: as §1, §2, §3, §4, §5

[26] = system: upland rice (Oryza sp., var.Tebonnet, RICE); assay: as above
Text: as §1, §2, §3, §4, §5

N#Cc1c(-c2cc(Oc3ncccn3)c(Cl)cc2F)nn2c1CCCC2 [Compound 6-17]
90: SETVI phytotoxicity rating (0-100 scale) ([16]; 125 g ai/ha) | SETVI phytotoxicity rating (0-100 scale) ([16]; 250 g ai/ha)
99: DIGSA phytotoxicity rating (0-100 scale) ([7]; 125 g ai/ha)
75: AMBEL phytotoxicity rating (0-100 scale) ([15]; 250 g ai/ha)
70: CASOB phytotoxicity rating (0-100 scale) ([22]; 125 g ai/ha) | SOY crop damage, phytotoxicity rating (0-100 scale) ([25]; 125 g ai/ha) | SOY crop damage, phytotoxicity rating (0-100 scale) ([25]; 250 g ai/ha)
100: SETVI phytotoxicity rating (0-100 scale) ([3]; 125 g ai/ha) | SETVI phytotoxicity rating (0-100 scale) ([3]; 250 g ai/ha) | CHEAL phytotoxicity rating (0-100 scale) ([6]; 125 g ai/ha) | CHEAL phytotoxicity rating (0-100 scale) ([6]; 250 g ai/ha) | DIGSA phytotoxicity rating (0-100 scale) ([7]; 250 g ai/ha) | AMARE phytotoxicity rating (0-100 scale) ([8]; 125 g ai/ha) | AMARE phytotoxicity rating (0-100 scale) ([8]; 250 g ai/ha) | ABUTH phytotoxicity rating (0-100 scale) ([10]; 250 g ai/ha) | IPOHE phytotoxicity rating (0-100 scale) ([17]; 125 g ai/ha) | IPOHE phytotoxicity rating (0-100 scale) ([17]; 250 g ai/ha) | CHEAL phytotoxicity rating (0-100 scale) ([19]; 125 g ai/ha) | CHEAL phytotoxicity rating (0-100 scale) ([19]; 250 g ai/ha) | AMARE phytotoxicity rating (0-100 scale) ([21]; 125 g ai/ha) | AMARE phytotoxicity rating (0-100 scale) ([21]; 250 g ai/ha) | ABUTH phytotoxicity rating (0-100 scale) ([23]; 125 g ai/ha) | ABUTH phytotoxicity rating (0-100 scale) ([23]; 250 g ai/ha)
85: ABUTH phytotoxicity rating (0-100 scale) ([10]; 125 g ai/ha)
80: RICE crop damage, phytotoxicity rating (0-100 scale) ([26]; 125 g ai/ha) | RICE crop damage, phytotoxicity rating (0-100 scale) ([26]; 250 g ai/ha)
95: SORHA phytotoxicity rating (0-100 scale) ([5]; 125 g ai/ha) | CASOB phytotoxicity rating (0-100 scale) ([22]; 250 g ai/ha)
25: AMBEL phytotoxicity rating (0-100 scale) ([2]; 250 g ai/ha) | CASOB phytotoxicity rating (0-100 scale) ([9]; 250 g ai/ha) | RICE crop damage, phytotoxicity rating (0-100 scale) ([13]; 125 g ai/ha) | DIGSA phytotoxicity rating (0-100 scale) ([20]; 250 g ai/ha)
0: IPOHE phytotoxicity rating (0-100 scale) ([4]; 125 g ai/ha) | IPOHE phytotoxicity rating (0-100 scale) ([4]; 250 g ai/ha) | CASOB phytotoxicity rating (0-100 scale) ([9]; 125 g ai/ha) | CORN crop damage, phytotoxicity rating (0-100 scale) ([11]; 125 g ai/ha) | CORN crop damage, phytotoxicity rating (0-100 scale) ([11]; 250 g ai/ha) | SOY crop damage, phytotoxicity rating (0-100 scale) ([12]; 125 g ai/ha) | SOY crop damage, phytotoxicity rating (0-100 scale) ([12]; 250 g ai/ha) | SORHA phytotoxicity rating (0-100 scale) ([18]; 125 g ai/ha) | DIGSA phytotoxicity rating (0-100 scale) ([20]; 125 g ai/ha) | CORN crop damage, phytotoxicity rating (0-100 scale) ([24]; 125 g ai/ha)
30: SORHA phytotoxicity rating (0-100 scale) ([18]; 250 g ai/ha)
5: CORN crop damage, phytotoxicity rating (0-100 scale) ([24]; 250 g ai/ha)
60: ECHCG phytotoxicity rating (0-100 scale) ([1]; 125 g ai/ha) | ECHCG phytotoxicity rating (0-100 scale) ([14]; 125 g ai/ha) | AMBEL phytotoxicity rating (0-100 scale) ([15]; 125 g ai/ha)
35: AMBEL phytotoxicity rating (0-100 scale) ([2]; 125 g ai/ha) | RICE crop damage, phytotoxicity rating (0-100 scale) ([13]; 250 g ai/ha)
98: ECHCG phytotoxicity rating (0-100 scale) ([1]; 250 g ai/ha) | SORHA phytotoxicity rating (0-100 scale) ([5]; 250 g ai/ha)
65: ECHCG phytotoxicity rating (0-100 scale) ([14]; 250 g ai/ha)
